Marks after values point to notes of the source that are not given here.
What was measured:
[1] = target: collagenase from Clostridium histolyticum; experiment: Collagenase (MMP-1) inhibition, spectrophotometric assay with FALGPA; type: biochemical; details: mean ± SD, triplicate; ND = not determined due to low potency
Procedure: The capability of the extracts derived from the adult V. coerulea plant and its protocorms to inhibit the MMP-1 activities was evaluated through a spectrophotometric assay, which was modified from the methods described by Thring et al. (2009). Initially, an MMP-1 solution at a concentration of 0.1 units/mL was prepared, comprising MMP-1 sourced from C. histolyticum, along with 400 mM NaCl, 10 mM CaCl2, and 50 mM tricine buffer pH 7.5. Subsequently, 20 µL of the sample solution was combined with 20 µL of the MMP-1 solution and 80 µL of Tricine buffer pH 7.5. […] Immediately, the absorbance was measured kinetically at 340 nm for a duration of 20 min using a multimode microplate reader (BMG Labtech GmbH, Ortenberg, Germany). The findings were then expressed as the percentage of MMP-1 inhibition, calculated according to the subsequent equation:MMP-1 inhibition (%) = [(a − b)/a] × 100,(3) where a is the reaction rate of the combination without a sample, while b is the reaction rate of the combination with a sample. Various concentrations of each extract were evaluated, and their MMP-1 inhibitions were plotted against their logarithmic concentrations to generate dose–response curves. The IC50 values were calculated from the curves using GraphPad Prism (version 8.0.2, GraphPad Software, Boston, MA, USA). […]

[2] = target: T1, porcine pancreatic elastase (Sus scrofa, UniProt P00772); experiment: Elastase inhibition, spectrophotometric assay; type: biochemical; details: mean ± SD, triplicate; ND = not determined due to low potency
T1 construct: purchased Sigma-Aldrich; host or cells: porcine pancreas
T1 sequence (P00772 27-266): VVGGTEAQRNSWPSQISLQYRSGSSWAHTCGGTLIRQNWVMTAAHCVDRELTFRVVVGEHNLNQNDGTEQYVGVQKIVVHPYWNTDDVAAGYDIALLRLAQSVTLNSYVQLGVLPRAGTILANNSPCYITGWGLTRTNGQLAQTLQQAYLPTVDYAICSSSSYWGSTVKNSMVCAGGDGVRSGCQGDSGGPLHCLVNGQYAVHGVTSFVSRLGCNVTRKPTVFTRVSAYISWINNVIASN
Procedure: The capability of the extracts derived from the adult V. coerulea plant and its protocorms to inhibit elastase activities was evaluated through a spectrophotometric assay, which was modified from the methods described by Thring et al. (2009). Initially, an elastase solution at a concentration of 0.03 units/mL was prepared, comprising elastase sourced from porcine pancreas, along with 0.2 M Tris-HCl buffer pH 8.0. Subsequently, 10 µL of the sample solution was combined with 40 µL of the elastase solution. After the resulting mixture was incubated for 15 min at ambient temperature, 100 µL of 1.6 mM AAAVPN in tris HCl buffer pH 8.0 was introduced to initiate the enzymatic reaction. Immediately, the absorbance was measured kinetically at 410 nm for a duration of 20 min using a multimode microplate reader (BMG Labtech GmbH, Ortenberg, Germany). […] Various concentrations of each extract were evaluated, and their elastase inhibitions were plotted against their logarithmic concentrations to generate dose–response curves. The IC50 values were calculated from the curves using GraphPad Prism (version 8.0.2, GraphPad Software, Boston, MA, USA). […] was used as the positive control. The analysis was performed in triplicate.

[3] = Ferric-reducing antioxidant power (FRAP) assay; type: biochemical; details: mean ± SD, triplicate
Procedure: The capability of the extracts derived from the adult V. coerulea plant and its protocorms to reduce ferric was evaluated through a FRAP assay, which was modified from the methods described by Saeio et al. (2011). Initially, 20 µL of the sample solution was combined with 180 µL of the FRAP solution, prepared by mixing 0.3 M acetate buffer pH 3.6, 10 mM TPTZ in 40 mM HCl solution and 20 mM ferric chloride solution. After incubating the resulting mixture at room temperature for 5 min, the absorbance was measured at 595 nm using a multimode microplate reader (BMG Labtech GmbH, Ortenberg, Germany). The findings were then expressed as the percentage of ferric reducing ability, calculated according to the subsequent equation:Ferric reducing abilities (%) = [(a − b)/a] × 100,(2) where a is the UV absorbance of the combination without a sample, while b is the UV absorbance of the combination with a sample. Various concentrations of each extract were evaluated, and their ferric reducing abilities were plotted against their logarithmic concentrations to generate dose–response curves. […] L-ascorbic acid was used as the positive control. The analysis was performed in triplicate.

[4] = DPPH radical scavenging assay; type: biochemical; details: mean ± SD, triplicate; ND = not determined due to low potency
Procedure: The capability of the extracts derived from the adult V. coerulea plant and its protocorms to scavenge DPPH radicals was evaluated through a DPPH assay, which was modified from the methods described by Brem et al. (2004). Initially, 20 µL of the sample solution was combined with 180 µL of a DPPH solution, prepared by dissolving […] DPPH in DI water. After incubating the resulting mixture in darkness at room temperature for 30 min, the absorbance was measured at 520 nm using a multimode microplate reader (BMG Labtech GmbH, Ortenberg, Germany). […] Various concentrations of each extract were evaluated, and their DPPH inhibitions were plotted against their logarithmic concentrations to generate dose–response curves. […] L-ascorbic acid was used as the positive control. The analysis was performed in triplicate.

[5] = system: chorioallantoic membrane of fertilized hen eggs; experiment: Hen's egg-chorioallantoic membrane (HET-CAM) irritation test; details: 1% w/v, positive control
Procedure: The irritation potency of the extracts derived from the adult V. coerulea plant and its protocorms was evaluated through a HET-CAM test, which was previously described by Luepke and Kemper (1986). The fertilized black hen eggs from the Pradu Hang Dam Chiang Mai breed aged between 7 and 9 days were used in the HET-CAM test. As the embryos were in the early stages of development, ethical approval was not required. Typically, hen eggs require 21 days of incubation, and the fertilized eggs aged between 7 to 9 days, which was less than halfway through their incubation cycle, were not considered animals. Prior to the test, the eggshell above the air cell was cracked open, and the inner membrane was moistened with a normal saline solution. […] The duration until the first appearance of each irritation sign was meticulously monitored and recorded in seconds, which enabled the subsequent computation of the irritation score (IS) using the following equation:IS = [(301 − t(h))/300] × 5 + [(301 − t(l))/300] × 7 + [(301 − t(c))/300] × 9,(8) where t(h) is the time of the first appearance of hemorrhage in seconds, t(l) is the time of the first appearance of vascular lysis in seconds, and t(c) is the first appearance of vascular coagulation in seconds. […]

SMILES | IC50 Collagenase Inhibition [1] | IC50 Elastase Inhibition [2] | IC50 Ferric Reducing Capacity [3] | IC50 DPPH Inhibition [4] | IC50 [2] | Irritation Level [5] | Irritation Score (IS) [5]
O=C(O[C@@H]1Cc2c(O)cc(O)cc2O[C@@H]1c1cc(O)c(O)c(O)c1)c1cc(O)c(O)c(O)c1 [EGCG, epigallocatechin gallate] | 16.9 ± 3.2 ^b µg/mL | 0.1 ± 0.0 ^a µg/mL | – | – | – | – | –
O=C1O[C@H]([C@@H](O)CO)C(O)=C1O [AS, ascorbic acid] | – | – | 2.4 ± 0.7 ^a µg/mL | 3.5 ± 2.9 ^a µg/mL | – | – | –
C[C@@H]1O[C@@H](OC[C@H]2O[C@@H](Oc3c(-c4ccc(O)c(O)c4)oc4cc(O)cc(O)c4c3=O)[C@H](O)[C@@H](O)[C@@H]2O)[C@H](O)[C@H](O)[C@H]1O [RT, rutin] | 7.6 ± 3.4 ^a µg/mL | – | 12.9 ± 2.0 ^b µg/mL | 3.2 ± 2.7 ^a µg/mL | 17.2 µM | – | –
CCCCCCCCCCCCOS(=O)(=O)[O-].[Na+] [SLS, sodium lauryl sulfate] | – | – | – | – | – | Severe irritation (9.0–21.0 for severe irritation) | 15.13 ± 0.3
